A word on the IC50: it is the concentration needed to halve the response being measured. A high value points to lower potency.

Assay [1] concerns the target T1, human GIIAPLA2 (hGIIAPLA2) (Homo sapiens, UniProt P14555).
T1 construct: hGIIAPLA2 was prepared as previously described [33]; made in house
T1 sequence (P14555 21-144): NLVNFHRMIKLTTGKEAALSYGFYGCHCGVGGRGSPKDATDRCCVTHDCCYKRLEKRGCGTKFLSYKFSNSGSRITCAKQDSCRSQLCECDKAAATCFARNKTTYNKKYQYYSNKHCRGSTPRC
Kind of assay: In vitro fluorimetric PLA2 assay (β-py-C10-PG substrate). Format: biochemical. Conditions: 2 µM β-py-C10-PG, 1 ng/mL hGIIAPLA2. On the procedure: (§1) The compounds C1-C8 were submitted to fluorimetric assay to determine their inhibitory potencies and selectivity towards human GIIAPLA2 (hGIIAPLA2) versus porcine group IB PLA2 (pGIBPLA2) (Table 2). GIBPLA2 is an enzyme of the same family as GIIAPLA2 (sPLA2) but is mainly involved in digestion of dietary phospholipids and is secreted by the pancreas. Lipophilicity parameters, log P, of these products are calculated by use of Rekker's fragmental data (Table 2). The molecules C1-C8 are specific inhibitors of hGIIAPLA2 because none inhibited pGIBPLA2 at the highest concentration tested (100 µM). Such selectivity implies that C1-C8 should not interfere with the digestion process.
(§2) Fatty-acid free BSA and pancreatic PLA2 were from Sigma. hGIIAPLA2 was prepared as previously described. The fluorescent substrate for PLA2 assay, 1-hexadecanoyl-2-(10-pyrenedecanoyl)-sn-glycero-3-phosphoglycerol, ammonium salt (β-py-C10-PG) was from Molecular Probes (Eugene). PLA2 activity was evaluated as previously described with β-py-C10-PG used as a substrate (2 µM final concentration). In a total volume of 1 mL, the standard reaction medium contained 50 mM Tris-HCl (pH 7.5), 500 mM NaCl, 1 mM EGTA, 2 µM β-py-C10-PG, 0.1% fatty-acid free BSA and 6 ng/mL pancreatic PLA2 or 1 ng/mL hGIIAPLA2. The fluorescence (λex = 342 nm and λem = 398 nm) of the enzymatic reaction medium was recorded for 3 min with use of a spectrofluorimeter LS 50 (Perkin-Elmer) equipped with a Xenon lamp. The reaction was initiated by the addition of CaCl2 (10 mM, final concentration). The increase in fluorescence was continuously recorded for 1 min, and PLA2 activity was calculated as previously described. When used, the inhibitor was added to the reaction medium after introduction of BSA. The activity is expressed in micromoles of fluorescent β-py-C10-PG hydrolyzed per min. The standard error of the mean of three independent experiments was less than 10%, which allows for the determination of the IC50 values (concentration of inhibitors producing 50% inhibition) of each compound.

In assay [2] the target is T2, porcine group IB PLA2 (pGIBPLA2) (Sus scrofa, UniProt P00592).
T2 construct: purchased Sigma
The description is as above. Format: biochemical. Conditions: 2 µM β-py-C10-PG, 6 ng/mL pancreatic PLA2. Here is the method:
as §1, §2

The test system of assay [3] is IL-1β-stimulated PGE2 secretion in articular chondrocytes. The assay is described as follows: IL-1β-stimulated PGE2 secretion in articular chondrocytes (EIA). The format is cell-based, rabbit. The conditions noted are these: C1 at 8 µM, IL-1β 1 ng/mL (data not shown). Here is the method:
We tested the effect of C8 on the IL-1β-stimulated secretion of PGE2 in chondrocytes. PGE2 synthesis takes place mainly in response to cell activation by IL-1β, and its generation accounts for many of the actions induced by this cytokine. In vitro, IL-1β induces the expression of COX-2 by chondrocytes, which results in increased PGE2 production. PGE2 release thus represents a powerful IL-1β- and PLA2-dependent inflammatory marker in our cell model. Chondrocytes were treated for 20 h with IL-1β alone or 1 h after the addition of C8. […] In DMEM alone, at concentrations of 0.31-, 0.62-, 0.94-, and 1.24-µM, C8 decreased the production of PGE2 induced by IL-1β by 59-, 58-, 74-, and 80-%, respectively (Fig. 4A). In DMEM supplemented with 0.1% BSA, at concentrations of 0.31-, 0.62-, 0.94-, 1.24-, 2.48-, and 4.96-µM, C8 decreased the production of PGE2 induced by IL-1β by 31-, 30-, 45-, 43-, 81-, and 92-%, respectively (Fig. 4B). In DMEM supplemented with 2% FCS, at concentrations of 0.31-, 0.62-, 0.94-, 1.24-, 2.48-, and 4.96-µM, C8 decreased the production of PGE2 induced by IL-1β by 26-, 48-, 49-, 54-, 68-, and 68-%, respectively (Fig. 4C). […] The effect of C8 was then evaluated at the extreme concentrations (0.31- and 4.96-µM) in DMEM supplemented with 2% FCS and containing decreasing (1-, 0.5-, and 0.25-ng/mL) IL-1β concentrations (Table 3). The anti-IL-1β inhibitory effect of C8 at 0.31 µM increases when IL-1β concentration decreases. […] This is probably due to the fact that at 4.96 µM, the inhibitory effect of C8 on IL-1β-induced PGE2 production is maximal. […] Thus, C8, but not C1, decreases the IL-1β-stimulated PGE2 secretion in a dose-dependent manner in the three culture medium compositions used.
Articular chondrocytes were isolated from 5-week-old Fauve de Bourgogne female rabbits (CPA, Orleans, France) and cultured at the first passage in conditions avoiding cell dedifferentiation as previously described. Cells were cultured at 37°C in 12-well plates in Ham's F-12 medium containing 10% FCS, 20 IU/mL penicillin, and 20 µg/mL streptomycin (all from Invitrogen) until nearly confluent. Then medium was replaced with DMEM (Invitrogen) containing 20 IU/mL penicillin, and 20 µg/mL streptomycin and, if necessary, 0.1% fatty acid free BSA (Sigma) or 2% FCS. At this time the C8 compound dissolved in DMSO (Sigma) was added to the medium (the amount of DMSO was kept at 1‰ (v/v) in all the wells). 1 h after the addition of C8, IL-1β (PeproTech) was added to the medium. Consequently, chondrocytes were incubated for 20 h with IL-1β and for 21 h with C8.
20 h after the addition of IL-1β to the chondrocytes, culture media were collected, and aliquots were stored at −80°C until PGE2 and nitrite quantification. PGE2 concentration in culture media was determined by use of an enzyme immunoassay (EIA) kit (PGE2 EIA Kit-monoclonal; Cayman Chemical). Nitrite concentration was determined by a spectrophotometry method based on the Griess reaction. Briefly, 200 µL of culture medium or sodium nitrite (NaNO2, Merck) standard dilutions were mixed with 100 µL Griess reagent [0.5% (w/v) sulphanilic acid (Merck), 0.05% (w/v) N(1-naphtyl)ethylenediamine (Merck), 30% (v/v) acetic acid, 1.5 N HCl] and incubated for 10 min at 50°C. The absorbance was measured at 540 nm.

Assay [4] relates to atherosclerosis in apolipoprotein-E-null mice. Details: method as in PMID 19129734. Conditions: cited from earlier work.

T2 sequence (P00592 23-146): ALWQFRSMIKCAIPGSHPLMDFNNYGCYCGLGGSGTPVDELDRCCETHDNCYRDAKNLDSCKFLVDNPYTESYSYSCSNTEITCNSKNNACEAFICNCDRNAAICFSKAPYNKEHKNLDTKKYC

`O=c1[nH]c(Cc2ccc(OCCCCCn3ccc4ccccc43)cc2)no1` [C1, 3-{4-[5-(indol-1-yl)pentoxy]benzyl}-4H-1,2,4-oxadiazol-5-one]: the IC50 is 5 ± 0.7 µM in assay [1] and > 100 µM in assay [2]. Moreover, the “effect on PGE2 secretion stimulated by IL-1β” value in assay [3] is “does not decrease”.
Consider `O=c1[nH]c(Cc2ccc(OCCCCCOc3ccccc3-c3ccccc3)cc2)no1` [C2], for which the values for the IC50 in assay [1] and in assay [2] were 10 ± 1.5 µM and > 100 µM, respectively.
The corresponding values for `Cc1nc2cc(OCCCCCOc3ccc(Cc4noc(=O)[nH]4)cc3)ccc2s1` [C3] are 5 ± 1.2 µM and > 100 µM.
The corresponding values for `O=c1[nH]c(Cc2ccc(OCCCCCn3ccc4cc(Cl)ccc43)cc2)no1` [C4] are 6.5 ± 1.8 µM and > 100 µM.
In the case of `COc1ccc2c(ccn2CCCCCOc2ccc(Cc3noc(=O)[nH]3)cc2)c1` [C5], the figures for the IC50 in assay [1] and in assay [2] were 2.5 ± 0.5 µM and > 100 µM, respectively.
The corresponding values for `O=c1[nH]c(Cc2ccc(OCCCCCOc3ccc(-c4ccccc4)cc3)cc2)no1` [C6] are 3 ± 0.2 µM and > 100 µM.
The corresponding values for `O=c1[nH]c(Cc2ccc(OCCCCCOc3ccccc3)cc2)no1` [C7] are 35 ± 1.8 µM and > 100 µM.
As for `CCc1c(C(=O)C(N)=O)c2c(OCC(=O)O)cccc2n1Cc1ccccc1` [Varespladib], the effect on atherosclerosis result in assay [4] was “reduce atherosclerosis”.

Source of the values: publication PMC2879362, “Design of Group IIA Secreted/Synovial Phospholipase A2 Inhibitors: An Oxadiazolone Derivative Suppresses Chondrocyte Prostaglandin E2 Secretion” (PLoS ONE, 2010).
